Measured values taken from patent US20150175599A1, “FAAH Inhibitors” (Ironwood Pharmaceuticals, Inc., priority 2010, published 2015).

Test: Pharmacokinetic study, plasma level 2 hours after oral dosing in rats
Assay type: in vivo
Outline: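 Rats dosed by oral gavage in 1% DMA/99% Vitamin E TPGS; EDTA plasma taken by retro-orbital bleed 2 h post-dose. Acetonitrile precipitation with internal standard, LC/MS/MS quantitation against plasma standards 0.1–3000 ng/mL.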

| SMILES | 2 hr plasma level-ng/mL (rat, 10 mg/kg PO, 2 hr) |
| --- | --- |
| COc1ccc2c(c1)c(C(=O)C(=O)Nc1ccnc(OC)c1)c(C)n2Cc1ccc(Cl)cn1 [Compound 79, 2-(1-((5-chloropyridin-2-yl)methyl)-5-methoxy-2-methyl-1H-indol-3-yl)-N-(2-methoxypyridin-4-yl)-2-oxoacetamide] | D (D = greater than 1000 nM) |
| COc1ccc2c(c1)c(C(=O)C(=O)Nc1ccnc(OC)c1)c(C)n2Cc1ncc(F)cc1F [Compound 81, 2-(1-((3,5-difluoropyridin-2-yl)methyl)-5-methoxy-2-methyl-1H-indol-3-yl)-N-(2-methoxypyridin-4-yl)-2-oxoacetamide] | D (D = greater than 1000 nM) |
| COc1cc(NC(=O)C(=O)c2c(C)n(Cc3ccc(Cl)cc3)c3cc(F)c(C)cc23)ccn1 [Compound 89, 2-(1-(4-chlorobenzyl)-6-fluoro-2,5-dimethyl-1H-indol-3-yl)-N-(2-methoxypyridin-4-yl)-2-oxoacetamide] | C (C = between 100 nM and 1000 nM) |
| COc1ccc2c(c1)c(C(=O)C(=O)Nc1ccnc(OC)c1)c(C)n2Cc1ncc(Cl)cc1F [Compound 87, 2-(1-((5-chloro-3-fluoropyridin-2-yl)methyl)-5-methoxy-2-methyl-1H-indol-3-yl)-N-(2-methoxypyridin-4-yl)-2-oxoacetamide] | D (D = greater than 1000 nM) |
| COc1cc(NC(=O)C(=O)c2c(C)n(Cc3ccc(Cl)cn3)c3cc(Cl)c(C)cc23)ccn1 [Compound 94, 2-(6-chloro-1-((5-chloropyridin-2-yl)methyl)-2,5-dimethyl-1H-indol-3-yl)-N-(2-methoxypyridin-4-yl)-2-oxoacetamide] | D (D = greater than 1000 nM) |
| COc1cc(NC(=O)C(=O)c2c(C)n(Cc3ccc(Cl)cc3)c3cc(Cl)c(C)cc23)ccn1 [Compound 93, 2-(6-chloro-1-(4-chlorobenzyl)-2,5-dimethyl-1H-indol-3-yl)-N-(2-methoxypyridin-4-yl)-2-oxoacetamide] | C (C = between 100 nM and 1000 nM) |
| COc1ccc2c(c1)c(C(=O)C(=O)Nc1ccnc(OC)c1)c(C)n2Cc1ccc(C)cn1 [Compound 84, 2-(5-methoxy-2-methyl-1-((5-methylpyridin-2-yl)methyl)-1H-indol-3-yl)-N-(2-methoxypyridin-4-yl)-2-oxoacetamide] | D (D = greater than 1000 nM) |
| COc1cc(NC(=O)C(=O)c2c(C)n(Cc3ccc(Cl)cn3)c3cc(F)c(C)cc23)ccn1 [Compound 90, 2-(1-((5-chloropyridin-2-yl)methyl)-6-fluoro-2,5-dimethyl-1H-indol-3-yl)-N-(2-methoxypyridin-4-yl)-2-oxoacetamide] | D (D = greater than 1000 nM) |
| COc1ccc2c(c1)c(C(=O)C(=O)Nc1ccnc(OC)c1)c(C)n2Cc1ncc(Cl)cc1Cl [Compound 82, 2-(1-((3,5-dichloropyridin-2-yl)methyl)-5-methoxy-2-methyl-1H-indol-3-yl)-N-(2-methoxypyridin-4-yl)-2-oxoacetamide] | D (D = greater than 1000 nM) |
| COc1ccc2c(c1)c(C(=O)C(=O)Nc1ccnc(OC)c1)c(C)n2Cc1ccc(Cl)nn1 [Compound 86, 2-(1-((6-chloropyridazin-3-yl)methyl)-5-methoxy-2-methyl-1H-indol-3-yl)-N-(2-methoxypyridin-4-yl)-2-oxoacetamide] | D (D = greater than 1000 nM) |
| COc1cc(NC(=O)C(=O)c2c(C)n(Cc3ccc(F)cn3)c3ccc(C)cc23)ccn1 [Compound 85, 2-(1-((5-fluoropyridin-2-yl)methyl)-2,5-dimethyl-1H-indol-3-yl)-N-(2-methoxypyridin-4-yl)-2-oxoacetamide] | D (D = greater than 1000 nM) |
